How the values were obtained:
[1] = tested on: Hepatitis C virus; experiment: Ratio of IC50 for HCV 1b with NS3-4 R155K mutation to IC50 for wild type HCV 1b; format: functional, Hepacivirus hominis, genotype 1b
[2] = tested on: Hepatitis C virus; experiment: Ratio of IC50 for HCV 1b with NS3-4A R155T mutation to IC50 for wild type HCV 1b; format: functional, Hepacivirus hominis, genotype 1b
[3] = tested on: Hepatitis C virus; experiment: Ratio of IC50 for HCV 1b with NS3-4A R155G mutation to IC50 for wild type HCV 1b; format: functional, Hepacivirus hominis, genotype 1b
[4] = tested on: Hepatitis C virus; experiment: Antiviral activity against wild type HCV 1b Con1 in human Huh7 cells after 48 hrs by replicon cell assay; format: functional, organism-based, Hepacivirus hominis; settings: genotype 1b Con 1, Huh-7, 48 h
[5] = tested on: Hepatitis C virus; experiment: Antiviral activity against HCV 1b Con1 with NS3-4A R155K mutation in human Huh7 cells after 48 hrs by replicon cell assay; format: functional, organism-based, Hepacivirus hominis; settings: genotype 1b Con 1, Huh-7, 48 h
[6] = tested on: Hepatitis C virus; experiment: (§1) Antiviral activity against HCV 1b with NS3-4A R155T mutation in human Huh7 cells after 48 hrs by replicon cell assay; format: functional, organism-based, Hepacivirus hominis; settings: genotype 1b, Huh-7, 48 h
[7] = tested on: Hepatitis C virus; experiment: Antiviral activity against HCV 1b with NS3-4A R155M mutation in human Huh7 cells after 48 hrs by replicon cell assay; format: functional, organism-based, Hepacivirus hominis; settings: genotype 1b, Huh-7, 48 h
[8] = tested on: Hepatitis C virus; experiment: Antiviral activity against wild type HCV in human Huh7.5 cells assessed as replication capacity by luciferase assay; format: functional, Hepacivirus hominis, Huh-7
[9] = tested on: Hepatitis C virus; experiment: Antiviral activity against HCV with NS3-4A R155K mutation in human Huh7.5 cells after assessed as replication capacity by luciferase assay relative to wild type HCV; format: functional, Hepacivirus hominis, Huh-7
[10] = tested on: Hepatitis C virus; experiment: Antiviral activity against HCV with NS3-4A R155T mutation in human Huh7.5 cells assessed as replication capacity by luciferase assay relative to wild type HCV; format: functional, Hepacivirus hominis, Huh-7
[11] = tested on: Hepatitis C virus; experiment: Antiviral activity against HCV with NS3-4A R155S mutation in human Huh7.5 cells assessed as replication capacity by luciferase assay relative to wild type HCV; format: functional, Hepacivirus hominis, Huh-7
[12] = tested on: Hepatitis C virus; experiment: Antiviral activity against HCV with NS3-4A R155I mutation in human Huh7.5 cells assessed as replication capacity by luciferase assay relative to wild type HCV; format: functional, Hepacivirus hominis, Huh-7
[13] = tested on: Hepatitis C virus; experiment: Antiviral activity against HCV with NS3-4A R155M mutation in human Huh7.5 cells assessed as replication capacity by luciferase assay relative to wild type HCV; format: functional, Hepacivirus hominis, Huh-7
[14] = tested on: Hepatitis C virus; experiment: Antiviral activity against HCV with NS3-4A R155G mutation in human Huh7.5 cells assessed as replication capacity by luciferase assay relative to wild type HCV; format: functional, Hepacivirus hominis, Huh-7
[15] = tested on: Hepatitis C virus; experiment: Ratio of IC50 for HCV 1b with NS3-4A R155I mutation to IC50 for wild type HCV 1b; format: functional, Hepacivirus hominis, genotype 1b
[16] = tested on: Hepatitis C virus; experiment: Antiviral activity against HCV 1b with NS3-4A R155G mutation in human Huh7 cells after 48 hrs by replicon cell assay; format: functional, organism-based, Hepacivirus hominis; settings: genotype 1b, Huh-7, 48 h
[17] = tested on: Hepatitis C virus; experiment: Ratio of IC50 for HCV 1b with NS3-4A R155S mutation to IC50 for wild type HCV 1b; format: functional, Hepacivirus hominis, genotype 1b
[18] = tested on: Hepatitis C virus; experiment: Ratio of IC50 for HCV 1b with NS3-4A R155M mutation to IC50 for wild type HCV 1b; format: functional, Hepacivirus hominis, genotype 1b
[19] = Inhibition of wild type HCV 1a NS3-4A protease after 60 mins
[20] = biological target: NS3 protease (Hepacivirus C, UniProt C1KIQ2, R155K); experiment: Inhibition of HCV 1a NS3-4A R155K mutant protease after 60 mins; design: species or system Hepatitis C virus subtype 1a
[21] = biological target: NS3 protease (Hepacivirus C, UniProt C1KIQ2, R155T); experiment: Inhibition of HCV 1a NS3-4A R155T mutant protease after 60 mins; design: species or system Hepatitis C virus subtype 1a
[22] = biological target: NS3 protease (Hepacivirus C, UniProt C1KIQ2, R155S); experiment: Inhibition of HCV 1a NS3-4A protease R155S mutant after 60 mins; design: species or system Hepatitis C virus subtype 1a
[23] = biological target: NS3 protease (Hepacivirus C, UniProt C1KIQ2, R155I); experiment: Inhibition of HCV 1a NS3-4A R155I mutant protease after 60 mins; design: species or system Hepatitis C virus subtype 1a
Sequence of NS3 protease (Hepacivirus C, UniProt C1KIQ2, R155I) (C1KIQ2 entry or part of it R155I): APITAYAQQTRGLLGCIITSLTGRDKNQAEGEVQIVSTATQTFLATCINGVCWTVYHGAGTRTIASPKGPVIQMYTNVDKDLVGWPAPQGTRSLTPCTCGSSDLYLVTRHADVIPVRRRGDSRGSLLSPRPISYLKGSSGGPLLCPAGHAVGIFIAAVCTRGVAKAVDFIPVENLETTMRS

[24] = tested on: Hepatitis C virus; experiment: as §1; format: functional, organism-based, Hepacivirus hominis; settings: genotype 1b, Huh-7, 48 h; remark: listed apart in the source
[25] = tested on: Hepatitis C virus; experiment: Antiviral activity against HCV 1b with NS3-4A R155I mutation in human Huh7 cells after 48 hrs by replicon cell assay; format: functional, organism-based, Hepacivirus hominis; settings: genotype 1b, Huh-7, 48 h
[26] = tested on: Hepatitis C virus subtype 1a
Description: Activity of wild type HCV 1a NS3-4A protease

[27] = substrate: CCC[C@H](NC(=O)[C@@H]1[C@H]2CCC[C@H]2CN1C(=O)[C@@H](NC(=O)[C@@H](NC(=O)c1cnccn1)C1CCCCC1)C(C)(C)C)C(=O)C(=O)NC1CC1; settings: Hepatitis C virus subtype 1a
[28] = substrate: CCC[C@H](NC(=O)[C@@H]1[C@H]2CCC[C@H]2CN1C(=O)[C@@H](NC(=O)[C@@H](NC(=O)c1cnccn1)C1CCCCC1)C(C)(C)C)C(=O)C(=O)NC1CC1; settings: Hepatitis C virus subtype 1a; remark: listed apart in the source
[29] = substrate: CCC[C@H](NC(=O)[C@@H]1[C@H]2CCC[C@H]2CN1C(=O)[C@@H](NC(=O)[C@@H](NC(=O)c1cnccn1)C1CCCCC1)C(C)(C)C)C(=O)C(=O)NC1CC1; settings: Hepatitis C virus subtype 1a; remark: listed apart in the source

Molecule: NC(=O)c1ncn([C@@H]2O[C@H](CO)[C@@H](O)[C@H]2O)n1 [RIBAVIRIN]
- fold change (FC) [1]: 0.6
- fold change (FC) [2]: 0.6
- fold change (FC) [3]: 0.7
- IC50 [4]: 58 µM
- IC50 [5]: 37 µM
- IC50 [6]: 32 µM
- IC50 [7]: 39 µM

Molecule: CCC[C@H](NC(=O)[C@@H]1[C@H]2CCC[C@H]2CN1C(=O)[C@@H](NC(=O)[C@@H](NC(=O)c1cnccn1)C1CCCCC1)C(C)(C)C)C(=O)C(=O)NC1CC1 [TELAPREVIR]
- Activity [8]: 100%
- Activity [9]: 80%
- Activity [10]: 41%
- Activity [11]: 45%
- Activity [12]: 19%
- Activity [13]: 18%
- Activity [14]: 10%
- fold change (FC) [15]: 24
- IC50 [16]: 3.6 µM
- fold change (FC) [1]: 7.4
- fold change (FC) [2]: 19.8
- fold change (FC) [17]: 4.1
- fold change (FC) [18]: 5.5
- fold change (FC) [3]: 7.4
- IC50 [19]: 0.05 µM
- IC50 [20]: 0.51 µM
- IC50 [21]: 0.49 µM
- IC50 [22]: 1.15 µM
- IC50 [23]: 0.88 µM
- IC50 [4]: 0.49 µM
- IC50 [5]: 3.6 µM
- IC50 [6]: 9.6 µM
- IC50 [24]: 2 µM
- IC50 [25]: 11.7 µM
- IC50 [7]: 2.7 µM
- Km [26]: 53 µM

B1: NS3 protease (Hepacivirus C), C1KIQ2 R155K (protein)
chain: APITAYAQQTRGLLGCIITSLTGRDKNQAEGEVQIVSTATQTFLATCINGVCWTVYHGAGTRTIASPKGPVIQMYTNVDKDLVGWPAPQGTRSLTPCTCGSSDLYLVTRHADVIPVRRRGDSRGSLLSPRPISYLKGSSGGPLLCPAGHAVGIFKAAVCTRGVAKAVDFIPVENLETTMRS
- Km [27]: 168 µM

B2: NS3 protease (Hepacivirus C), C1KIQ2 R155T (protein)
chain: APITAYAQQTRGLLGCIITSLTGRDKNQAEGEVQIVSTATQTFLATCINGVCWTVYHGAGTRTIASPKGPVIQMYTNVDKDLVGWPAPQGTRSLTPCTCGSSDLYLVTRHADVIPVRRRGDSRGSLLSPRPISYLKGSSGGPLLCPAGHAVGIFTAAVCTRGVAKAVDFIPVENLETTMRS
- Km [28]: 68 µM

B3: NS3 protease (Hepacivirus C), C1KIQ2 R155S (protein)
chain: APITAYAQQTRGLLGCIITSLTGRDKNQAEGEVQIVSTATQTFLATCINGVCWTVYHGAGTRTIASPKGPVIQMYTNVDKDLVGWPAPQGTRSLTPCTCGSSDLYLVTRHADVIPVRRRGDSRGSLLSPRPISYLKGSSGGPLLCPAGHAVGIFSAAVCTRGVAKAVDFIPVENLETTMRS
- Km [29]: 552 µM

Source: ChEMBL document CHEMBL1156474, “Phenotypic and structural analyses of hepatitis C virus NS3 protease Arg155 variants: sensitivity to telaprevir (VX-950) and interferon alpha” (J Biol Chem, 2007)
